From patent US9046782B2, “Resist composition for negative tone development and pattern forming method using the same” (FUJIFILM Corporation, priority 2007, dated 2015)

Assay: Vapor pressure of solvents for negative tone development and rinsing
Details: value at 20° C.

SMILES	Vapor Pressure [kPa]
CCCCCCCO [1-Heptanol]	0.015
CCCCCCO [1-Hexanol]	0.13
CC(C)CCO [3-Methyl-1-butanol]	0.4
CCCCOC(C)=O [Butyl acetate]	1.2
CCCCCCCCCC [Decane]	0.17
CC(=O)OCCC(C)C [Isoamyl acetate]	0.53
CCC(C)=O [Methyl ethyl ketone]	10.5
CC(=O)CC(C)C [Methyl isobutyl ketone]	2.1

The remaining lines, values ahead:

Vapor Pressure [kPa]	SMILES
0.133	CCCCCC(C)O (stereo not drawn) [2-Heptanol]
0.36	CCCCC(C)=O [2-Hexanone]
8.33	CCCOCCC [Dipropyl ether]
0.04	CCCCCCCCCCCC [Dodecane]
